The series is described as follows: Thermo Scientific Acclaim RSLC 120 C18, 100 × 2.1 mm, 2.2 µm, 30 °C; A: 90% water + 10% methanol + 0.01% formic acid + 5 mM ammonium formate; B: methanol + 0.01% formic acid + 5 mM ammonium formate; gradient (min/%B) 0.1/1 3/39 14/99.9 16/99.9. As to conditions: stereoisomer not certain.
For the molecule `CC(C)NCC(O)COc1ccc(CC(N)=O)cc1` (stereo not drawn), the LC retention time came to 3.09 min.
In the case of `CCN1CC2(COC)C(O)CC(OC)C34C5CC6(O)C(OC)C(O)C(OC(C)=O)(C5C6OC(=O)c5ccccc5)C(C(OC)C23)C14` (stereo not drawn), the LC retention time was 7.09 min.
For `C=CC(N)CCC(=O)O` (stereo not drawn) the value was 1.38 min.
For `CCNC(=O)NC(=O)C(C#N)=NOC` the value was 5.6 min; for `CC(CN1c2ccccc2Sc2ccc(S(=O)(=O)N(C)C)cc21)N(C)C` (stereo not drawn), 7.01 min.
For `Cc1cccc2sc3nncn3c12` the value was 5.93 min; for `O=C(NC1CCN(CCc2c[nH]c3ccccc23)CC1)c1ccccc1`, 5.37 min; for `NC(N)=NCC1COc2ccccc2O1` (stereo not drawn), 4.57 min.
Turning to `O=C(O)C1C2CCC(O2)C1C(=O)O` (stereo not drawn), the LC retention time worked out at 3.2 min.
Regarding `Cc1c(NC=O)c(=O)n(-c2ccccc2)n1C`, the LC retention time is 3.96 min.
On to `Cc1cc(C)nc(Nc2ccccc2)n1`, for which the LC retention time is 9.44 min.
As to `CC1(C)C(C(=O)OC(C#N)c2cccc(Oc3ccccc3)c2)C1(C)C` (stereo not drawn), the LC retention time came to 12.9 min.
For `CCC(CO)NC(=O)C1C=C2c3cccc4[nH]cc(c34)CC2N(C)C1` (stereo not drawn) the value was 4.34 min; for `CC=C1CC(C)C(C)(O)C(=O)OCC2=CCN(C)CCC(OC1=O)C2=O` (stereo not drawn), 5.16 min; for `CCCc1nn(C)c2c(=S)nc(-c3cc(S(=O)(=O)N4CCN(CCO)CC4)ccc3OCC)[nH]c12`, 10.5 min.
For `Cc1ccccc1-n1c(C)nc2ccccc2c1=O` the value was 7.83 min; for `Cc1nnc(-c2ccccc2)c(=O)[nH]1`, 5.29 min.
For `CCCSc1cc(OC)c(CCN)cc1OC` the value was 6.98 min; for `NS(=O)(=O)Cc1noc2ccccc12`, 4.53 min; for `CC=C1N(C)C(C)CC1(c1ccccc1)c1ccccc1` (stereo not drawn), 6.38 min.
For the molecule `CCOP(=S)(OCC)Oc1ccc(S(C)=O)cc1` (stereo not drawn), the LC retention time was determined as 8.27 min.
With `CC12CCC3C(CC=C4CC(O)CCC43C)C1CCC2=O` (stereo not drawn), the LC retention time is 10.2 min.
In the case of `C=C(c1ccc(C(=O)O)cc1)c1cc2c(cc1C)C(C)(C)CCC2(C)C`, the LC retention time was found to be 14.1 min.
Under `COc1cccc(C2(O)CCCCC2C[N+](C)(C)[O-])c1` (stereo not drawn) stands 5.24 min; under `NS(=O)(=O)c1ccc(N2CCCCS2(=O)=O)cc1`, 4.11 min; under `CCOC(=O)C(c1ccccc1)C1CCCCN1` (stereo not drawn), 5.08 min.
Under `CCCN(CCC)c1c([N+](=O)[O-])cc(S(N)(=O)=O)cc1[N+](=O)[O-]` stands 10.3 min.
Under `CC1CCC2(OC1)OC1CC3C4CC=C5CC(O)CCC5(C)C4CCC3(C)C1C2C` (stereo not drawn) stands 15.1 min.
As to `CCCOC(C(=O)OC1CCN(C)CC1)(c1ccccc1)c1ccccc1`, the LC retention time turned out to be 9.36 min.
Turning to `CN(C)CCN(Cc1ccccc1)c1ccccn1`, the LC retention time is 5.86 min.
For `CC(C(=O)c1ccccc1)N(C)C` (stereo not drawn) the value was 3.64 min; for `CCc1ccc(C(=O)NN(C(=O)c2cc(C)cc(C)c2)C(C)(C)C)cc1`, 10.4 min.
In the case of `COc1ccc2c3c1OC1CC(O)C=CC31CCN(C)C2` (stereo not drawn), the LC retention time was 2.99 min.
Turning to `N#Cc1ccc2c(c1)N(CCCN1CCC(O)CC1)c1ccccc1S2`, the LC retention time amounted to 7.45 min.
Turning to `CCC(C(=O)c1ccc2c(c1)OCO2)N1CCCC1` (stereo not drawn), the LC retention time was 4.49 min.
In the case of `CC(CN1CCN(CCOCCO)CC1)CN1c2ccccc2Sc2ccccc21` (stereo not drawn), the LC retention time is 9.08 min.
Consider `O=c1ccc2cc(OC3OC(CO)C(O)C(O)C3O)c(O)cc2o1` (stereo not drawn), for which the LC retention time was 3.69 min.
For `CN1CC(=O)N2C(Cc3c([nH]c4ccccc34)C2c2ccc3c(c2)OCO3)C1=O` (stereo not drawn) the value was 8.26 min; for `CNC(=O)Oc1cc(C)c(C)c(C)c1`, 8.1 min; for `CCN(C(=O)SCc1ccccc1)C(C)C(C)C` (stereo not drawn), 12.2 min.
As for `COc1nn(CSP(=S)(OC)OC)c(=O)s1`, the LC retention time is 8.7 min.
For `Cc1cc(=O)n(-c2ccccc2)n1C` the value was 4.63 min; for `CN1CCN2c3ncccc3Cc3ccccc3C2C1` (stereo not drawn), 5.29 min; for `COC1CC(OC2C(C)OC(OC3C(C)=CCC4CC(CC5(CCC(C)C(C(C)C)O5)O4)OC(=O)C4C=C(C)C(O)C5OCC(=CC=CC3C)C45O)CC2OC)OC(C)C1O` (stereo not drawn), 14.2 min.
Turning to `CCN(C)C(=O)Oc1cccc(C(C)N(C)C)c1` (stereo not drawn), the LC retention time amounted to 4.74 min.
Consider `CNCC(C)CN1c2ccccc2CCc2ccccc21` (stereo not drawn), for which the LC retention time came out at 8.49 min.
As for `C=C(C)C1Cc2c(ccc3c2OC2COc4cc(OC)c(OC)cc4C2C3=O)O1` (stereo not drawn), the LC retention time amounted to 10.5 min.
For the molecule `CC(C)CC(C)Nc1ccc(Nc2ccccc2)cc1` (stereo not drawn), the LC retention time was 9.92 min.
Under `COC(=O)C1=C(C#N)NC(C)=C(C(=O)OC(C)C)C1c1cccc([N+](=O)[O-])c1` (stereo not drawn) stands 10.3 min; under `COCC(=O)N(c1c(C)cccc1C)N1CCOC1=O`, 6.29 min.
Under `COc1ccc(CNC(=O)c2cc([N+](=O)[O-])ccc2NC(C)CO)cc1OC` (stereo not drawn) stands 7.8 min; under `COP(=S)(NC(C)C)Oc1ccccc1C(=O)OC(C)C` (stereo not drawn), 11.7 min.
Take `CC(C)CCOc1ccc(NC(=S)Nc2ccc(OCCC(C)C)cc2)cc1`: the LC retention time was 13 min.
Under `Cc1c(NC(C)C)c(=O)n(-c2ccccc2)n1C` stands 5.72 min.
Under `CC(N)C12CC3CC(CC(C3)C1)C2` (stereo not drawn) stands 6.71 min.
Under `CNc1c(C)n(C)n(-c2ccccc2)c1=O` stands 4.74 min.
In the case of `COc1cc(OC)nc(NC(=O)NS(=O)(=O)c2cc(NC=O)ccc2C(=O)N(C)C)n1`, the LC retention time came to 7.54 min.
For `CCC1OC(=O)C(C)C(OC2CC(C)(OC)C(O)C(C)O2)C(C)C(OC2OC(C)CC(NC)C2O)C(C)(OC)CC(C)C(=O)C(C)C(O)C1(C)O` (stereo not drawn) the value was 9.16 min; for `CC12C=CC(=O)C=C1CCC1C2C(O)CC2(C)C1CCC2(O)C(=O)CO` (stereo not drawn), 7.84 min; for `CN1CCN2c3ccccc3Cc3ccccc3C2C1` (stereo not drawn), 6.94 min.
Under `Cc1cccc(C)c1OCC(C)N` (stereo not drawn) stands 5.59 min; under `Cn1nc2ccccc2n1`, 5.11 min; under `COP(=S)(OC)SCOC(C)=O`, 7.16 min.
`CN1CCCC1c1cccnc1` (stereo not drawn): the LC retention time was 2.41 min.
Under `CCNc1nc(NCC)[nH]c(=O)n1` stands 4.21 min.
Regarding `CCC1(c2ccc(N)cc2)CCC(=O)NC1=O` (stereo not drawn), the LC retention time turned out to be 4.99 min.
For `NC(=O)c1ccccc1Oc1ccccc1` the value was 7.79 min.
For `NC1Cc2cc3c(cc2C1)OCO3` the value was 3.81 min.
For `CCc1ccc(CCOc2ccc(CC3SC(=O)NC3=O)cc2)nc1` (stereo not drawn) the value was 9.09 min.
Regarding `O=C(Nc1cccc(C2=NCCN2)c1)Nc1cccc(C2=NCCN2)c1`, the LC retention time is 3.78 min.
For `Cc1cc2c(OCC(O)CNC(C)C)cccc2[nH]1` (stereo not drawn) the value was 4.44 min; for `COc1ccc2c3c1OC1C(O)C=CC4C(C2)N(C)CCC341` (stereo not drawn), 3.4 min; for `CCCCCCCn1cc(C(=O)c2cccc3ccccc23)c2ccccc21`, 13.4 min.
On to `CN(CCO)CC(O)Cn1cnc2c1c(=O)n(C)c(=O)n2C` (stereo not drawn), for which the LC retention time turned out to be 2.99 min.
For `CN(C)CCC=C1c2ccccc2CCc2ccccc21` the value was 8.23 min.
Consider `CCCc1nn(C)c2c(=S)nc(-c3cc(S(=O)(=O)N4CCN(C)CC4)ccc3OCC)[nH]c12`, for which the LC retention time came to 10.6 min.
Turning to `CSc1nc(N)nc(NC(C)(C)C)n1`, the LC retention time amounted to 8.43 min.
`CC(N)Cc1ccc2occc2c1` (stereo not drawn): the LC retention time amounted to 4.79 min.
Under `Cc1ccc(C2(c3ccccc3)NC(=O)NC2=O)cc1` (stereo not drawn) stands 8.12 min; under `COCC(C)N(C(=O)C(=O)O)c1c(C)csc1C` (stereo not drawn), 6.36 min.
As for `CN(C)CCOC(c1ccccc1)c1ccccc1`, the LC retention time came to 6.63 min.
For the molecule `CCOC1OC(C(=O)O)C(O)C(O)C1O` (stereo not drawn), the LC retention time was 1.52 min.
As for `CCCc1nc(C)c2c(=O)[nH]c(-c3cc(S(=O)(=O)N4CCCCC4)ccc3OCC)nn12`, the LC retention time came out at 10.6 min.
For `c1ccc(C2(N3CCCCC3)CCCCC2)cc1` the value was 5.74 min; for `COc1cc(CCN)cc(OC)c1OC`, 3.88 min.
Under `O=[N+]([O-])c1cncn1CCN1CCOCC1` stands 4.09 min; under `CN(C)C1CSSSC1`, 3.16 min; under `CCN(CC)CCOCCOC(=O)C1(c2ccccc2)CCCC1`, 7.87 min.
Under `CNC1C(C)OC(OC2C(C)OC(OC3C(C)=CCC4CC(CC5(C=CC(C)C(C(C)C)O5)O4)OC(=O)C4C=C(C)C(O)C5OCC(=CC=CC3C)C45O)CC2OC)CC1OC` (stereo not drawn) stands 12 min; under `Cc1cc(O)ccc1CC(C)N` (stereo not drawn), 2.98 min; under `CN(C)c1nc(=O)n(C2CCCCC2)c(=O)n1C`, 7.09 min.
With `CCCCCn1nc(C(=O)Nc2cccc3ccccc23)c2ccccc21`, the LC retention time came to 13 min.
For `CCCC(Cc1ccccc1)N1CCCC1` (stereo not drawn), the LC retention time is 5.56 min.
With `CSc1nc(NC(C)C)nc(NC(C)C)n1`, the LC retention time is 10.1 min.
On to `CC(C)(N)Cc1ccccc1`, for which the LC retention time was found to be 4.64 min.
Consider `CN=C(NC)NCc1ccccc1`, for which the LC retention time was 3.97 min.
On to `CC(C)N1C(=O)N(c2ccccc2)CSC1=NC(C)(C)C`, for which the LC retention time came to 12.2 min.
For `CCOP(=S)(OCC)Oc1cc(C)nc(C(C)C)n1` the value was 11 min.

The record behind these values is the RepoRT retention time repository (doi:10.1016/j.jhazmat.2019.121712).
